The source of these data is patent publication US20090197914A1, “Piperidine Derivatives, Their Process for Preparation, Their Use as Therapeutic Agents and Pharmaceutical Compositions Containing Them” (priority 2006, published 2009).

Molecules are shown by their SMILES.

Data set [1] deals with T1, human recombinant CCR3 receptors (Homo sapiens, UniProt P51677).
T1 construct: expressed in transfected cells; membranes
T1 sequence (P51677 1-355): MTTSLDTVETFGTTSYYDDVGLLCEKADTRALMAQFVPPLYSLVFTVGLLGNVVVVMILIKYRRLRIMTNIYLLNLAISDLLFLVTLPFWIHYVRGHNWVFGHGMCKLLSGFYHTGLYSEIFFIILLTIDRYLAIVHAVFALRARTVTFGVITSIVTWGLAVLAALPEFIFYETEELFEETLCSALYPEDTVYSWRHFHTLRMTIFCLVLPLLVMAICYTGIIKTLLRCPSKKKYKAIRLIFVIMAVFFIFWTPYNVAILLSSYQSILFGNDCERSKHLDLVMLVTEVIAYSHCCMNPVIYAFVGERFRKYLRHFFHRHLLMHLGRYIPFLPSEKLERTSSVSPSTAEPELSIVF
The experiment in a line: Compound affinity at human recombinant CCR3 receptors by radioligand competition, CHO-K1 cell membranes. The class given is binding. As to conditions: mean pKi by Cheng-Prussof correction of pIC50, minimum of 2 separate experiments, 2 nM [3H] ligand, 2 h at 37° C. The protocol:
Determination of Compound Affinity at Human Recombinant CCR3 Receptors Assessed By Competition of [^3H]-4-(2,4-dichloro-3-methylphenoxy)-1′-[4-(methylsulfonyl)benzoyl]-1,4′-bipiperidine for CHO-K1 Cell Membranes In Vitro
Membranes, prepared from CHO-K1 cells stably expressing recombinant human CCR3, suspended in assay buffer (50 mM Tris-Base, pH 7.4; containing sodium chloride (100 mM) and magnesium chloride (2 mM)) were incubated in the presence of 2 nM [^3H]-4-(2,4-dichloro-3-methylphenoxy)-1′-[4-(methylsulfonyl)benzoyl]-1,4′-bipiperidine, along with vehicle (1% (v/v) DMSO), 4-(4-chloro-3-methylphenoxy)-1′-[2-(methylsulfonyl)benzoyl]-1,4′-bipiperidine (to define non-specific binding) or test compound for 2 h at 37° C. in round bottomed 96-well plates. […] Four washes (250 μL) with wash buffer (50 mM Tris-Base, pH 7.4 containing sodium chloride (500 mM) and magnesium chloride (2 mM)) were performed at 4° C. to remove unbound radioactivity. […] The plates were sealed (TopSeal A) and filter-bound radioactivity was measured with a scintillation counter (TopCount, Packard BioScience) using a 1 minute counting protocol.
Specific binding was determined from values of the control wells minus the values for the NSB wells for each assay plate. […] Data were presented as mean pKi values (calculated by applying a Cheng-Prussof correction to pIC50 values) from a minimum of 2 separate experiments.
Background: In a radioligand displacement assay an active substance lowers the binding of a labelled ligand.

The nature of data set [2]: Intrinsic clearance with human liver microsomes. As to conditions: human liver microsomes 1 mg protein/ml, NADPH, pH 7.4. The class given is in vitro ADME. Here is the method: Determination of Intrinsic Clearance with Human Liver Microsomes
Frozen human liver microsomes (BD Gentest, Oxford) were defrosted and were then diluted with 0.1 M pH 7.4 phosphate buffer at 4° C. to 1 mg protein/ml. 0.45 mL aliquots of the microsome suspension were dispensed into flat-bottomed vials (1 per compound) and were allowed to come to room temperature (5 min). During the warming time, 5 μL of solution of each test compound (typically 100 μM in DMSO) was dispensed into separate vials resulting in a final DMSO concentration of 1%. 50 μL of a 10 mM solution of NADPH in phosphate buffer (0.1 M pH 7.4, 37° C.) was added to each vial to initiate metabolism.
50 μL Aliquots of the mixtures were removed at measured intervals and were immediately quenched by addition to 100 μL of methanol cooled in ice. The quenched samples were kept cold (at −20° C. or less) for at least 1 h and were then centrifuged to remove protein.
The supernatant solution was analysed using quantitative LCMS for the presence of test compound. From the concentrations of test compound at different time points a T1/2 may be calculated which may be converted to an intrinsic clearance using the equation: CLint=ln 2/T1/2.
In general terms: Liver microsomes are vesicles of endoplasmic reticulum, rich in cytochrome P450 enzymes.

A word on the Ki: it is the dissociation constant of the complex between target and ligand, obtained from inhibition or displacement. One may read the CLint scaled as the rate of metabolic loss divided by the concentration. In the case of `Cc1c(CN2CCC(NC(=O)COc3nc(N)c(C(=O)O)cc3F)CC2)ccc(Cl)c1Cl` [Example 4, 2-Amino-6-{[1-(3,4-dichloro-2-methyl-benzyl)-piperidin-4-ylcarbamoyl]-methoxy}-5-fluoro-nicotinic acid], in data set [1], the inhibitory constant (Ki) was 3.16 nM. This molecule also gave a CLint scaled at 1 µM in data set [2] below 3 mL/min/kg.
